{
  "source": "patent US6699463B2",
  "about": "“Photostable cationic organic sunscreen compounds with antioxidant properties and compositions obtained therefrom” (EM Industries, priority 2002, dated 2004)",
  "key": {"[1]": {"experiment": "DPPH test method (percent reducing activity, antioxidant activity)", "type": "biochemical", "conditions": "for IC 50%: DPPH reducing activity; for Reductive activity at 30 μg/ml: DPPH, absorbance at 517 nm after 20 minutes", "method": "A DPPH concentrate (2.5×) of 25 mg of 1,1-Diphenyl-2-Picyrl-Hydrazyl ACS#1898-66-4 (Sigma #D-9132, lot 99H3601) dissolved in 250 mL ethanol (USP), is prepared fresh on the measurement date. A DPPH working solution is then prepared by diluting 100 mL of this concentrate to a final volume of 250 mL (100 μM/mL). A blank 13×100 mm borosilicate glass screw top tube of ethanol (USP) is used to zero the spectrometer (Milton Roy, Spectronic 20+) at 517 nm and a control tube of DPPH working solution is measured under identical conditions, and taken as 0% activity. Aliquots of the 0.25% & 0.5% (RT & 45° C.) test solution are added to tubes followed by the rapid addition of 4 mL DPPH working solution then rapidly capped and mixed. After 20 minutes, the absorbance of each sample is read at 517 nm.\nThe percent reducing activity (%RA) is calculated using the following equation: [formula]\nWhere A(0) is the absorbance value of the DPPH working solution at 517 nm zeroed against an ethanol blank and A(20) is the absorbance at 517 nm, 20 minutes after combining the antioxidant with the DPPH working solution.\nThe concentration of antioxidant (mg/ml) in the final assay mixture is calculated based on the dilution of respective aliquots of each compound in the final assay volume and %RA tabulated and plotted as percent activity at each concentration in the dilution series."}, "[2]": {"experiment": "UV absorption (λmax, εmax)", "type": "physicochemical", "conditions": "for λmax: Example 3 in EtOH:water-70%:30%; for εmax: at λmax", "method": "The mass was degassed for one hour at 90-95 deg. C. under vacuum. The yield obtained is about 85%. […] A 50% solution in water was prepared for ease of handling.\nThis material was prepared by following the procedure described in Example 3, except syringaldehyde was replaced with vanillin as a starting material. The product has a λmax at 334 nm (ε max 18050 cm^−1 mol^−1). A 50% solution in water was prepared for ease of handling."}, "[3]": {"experiment": "Chelating property: free coordination sites in Fe3+-antioxidant complex, UV spectrophotometric azide method", "type": "physicochemical", "method": "(§1) Iron-catalyzed formation of a hydroxyl radical from a superoxide anion radical and hydrogen peroxide requires the availability of at least one iron coordination site that is either empty or occupied by a readily dissociable ligand, such as water. […] Martell et al, 1957). The results are recorded in Tables 1 and 2. [table]"}, "[4]": {"experiment": "Chelating property: free coordination sites in Cu2+-antioxidant complex, UV spectrophotometric azide method", "type": "physicochemical", "method": "as §1"}, "[5]": {"experiment": "Solubility in water / aqueous-ethanolic solution", "type": "physicochemical", "conditions": "for Solubility in water: water / aqueous solution"}, "[6]": {"experiment": "Comparative photostability of thin films under UV A and UV B irradiation", "type": "physicochemical", "conditions": "thin film, UV A (2 MED/h) and UV B (1 MED/h), 8 h, FIGS. 1 and 2", "method": "The photostability of compounds of the present invention as well as existing commercial cationic sunscreens is tested according to the procedure described below:\nPhotostability: Comparative Photostability of Example 3, Incroquat® 283 and Escalol® HP610\nThree products [Example 3 (1%), Incroquat 283 (1%) and HP610 (0.1%)] were tested for their photostability by dissolving separately in water or ethanol-water solution containing 0.1% Poly(vinylpyrrolidone-vinyl acetate) copolymer (PVP-VA S630 from ISP). Air drying on a glass plate for one hour gave a thin film, which were irradiated under UV A (2 MED/h) and UV B (1 MED/h) light separately over an 8 h period in a Q-UV Accelerated Weathering Tester. Photodegradation was calculated from the decrease in the maximum absorption of the respective products. The results are illustrated in FIGS. 1 and 2."}},
  "data": [
    {"compound": "Bis-N-[3(N,N-dimethylamino)propyl]-3-methoxy-4-hydroxybenzylidene Malonamide Bis Ethylsulfate [Example 4]", "values": [
      {"measurement": "IC 50%", "setting": "[1]", "value": 188, "unit": "µg/mL"},
      {"measurement": "Reductive activity at 30 μg/ml", "setting": "[1]", "value": 8, "unit": "%"},
      {"measurement": "λmax", "setting": "[2]", "value": 334, "unit": "nm"},
      {"measurement": "εmax", "setting": "[2]", "value": 18050, "unit": "cm⁻¹ mol⁻¹"}
    ]},
    {"compound": "CCCCCCCCCCCC[N+](C)(C)CCCNC(=O)c1ccc(N(C)C)cc1.Cc1ccc(S(=O)(=O)[O-])cc1", "note": "[Escalol® HP 610]", "values": [
      {"measurement": "Iron chelation / water coordination of the complex", "setting": "[3]", "value": "do not have iron-or copper-chelating properties"},
      {"measurement": "Copper chelation / water coordination of the complex", "setting": "[4]", "value": "do not have iron-or copper-chelating properties"},
      {"measurement": "maximal concentration in aqueous-ethanolic solution", "setting": "[5]; aqueous-ethanolic solution (30:70%)", "value": 0.25, "unit": "%"},
      {"measurement": "Solubility in water", "setting": "[5]", "value": "very poor solubility"}
    ]},
    {"compound": "CCCCCCCCCCCC[N+](C)(C)CCCNC(=O)C(C#N)=Cc1cc(OC)c(O)c(OC)c1.CS(=O)(=O)[O-]", "note": "[Example 2, N-(3-Dimethyl-3-dodecylaminopropyl)-alpha-cyano-3,5-dimethoxy-4-hydroxy Cinnamide Methane Sulphonate]", "values": [
      {"measurement": "IC 50%", "setting": "[1]", "value": 129, "unit": "µg/mL"},
      {"measurement": "Reductive activity at 30 μg/ml", "setting": "[1]", "value": 28, "unit": "%"}
    ]},
    {"compound": "Bis-N-[3(N,N-dimethylamino)propyl]-3,5-dimethoxy-4-hydroxybenzylidene Malonamide Bis Ethylsulfate [Example 3]", "values": [
      {"measurement": "IC 50%", "setting": "[1]", "value": 118, "unit": "µg/mL"},
      {"measurement": "Reductive activity at 30 μg/ml", "setting": "[1]", "value": 22, "unit": "%"},
      {"measurement": "Photostability relative to commercial cationic sunscreens", "setting": "[6]", "value": "much higher photostability"},
      {"measurement": "Iron chelation / water coordination of the complex", "setting": "[3]", "value": "absence of any water coordination"},
      {"measurement": "Copper chelation / water coordination of the complex", "setting": "[4]", "value": "absence of any water coordination"},
      {"measurement": "Solubility in water", "setting": "[5]", "value": "highly soluble in water"},
      {"measurement": "λmax", "setting": "[2]", "value": 323, "unit": "nm"},
      {"measurement": "εmax", "setting": "[2]", "value": "10,500 cm^−1 mol^−1"}
    ]},
    {"compound": "COc1cc(/C=C(/C(C)=O)C(=O)NCCCN(C)C)cc(OC)c1O", "note": "[Example 1, N-(3-Dimethylaminopropyl)-alpha-acyl-3,5-dimethoxy-4-hydroxy Cinnamide]", "values": [
      {"measurement": "IC 50%", "setting": "[1]", "value": 79, "unit": "µg/mL"},
      {"measurement": "Reductive activity at 30 μg/ml", "setting": "[1]", "value": 23, "unit": "%"}
    ]}
  ]
}
